Measured values published in patent publication US10807944B2, “HDAC inhibitor compounds and methods of treatment” (priority 2014, dated 2020).
Where two headings read alike, the source gives them in different places.

Key:
HDAC4 = HDAC4 (Homo sapiens (Human), UniProt P56524); assay: HDAC4 in vitro inhibition, dose response; type: biochemical; details: Table 1; read-out: Inhibitory Potency (IC50) HDAC 4
HDAC1 [1] = target: T1, HDAC1 (Homo sapiens (Human), UniProt Q13547); assay: HDAC1 in vitro inhibition, dose response; type: biochemical
T1 sequence (Q13547 whole entry): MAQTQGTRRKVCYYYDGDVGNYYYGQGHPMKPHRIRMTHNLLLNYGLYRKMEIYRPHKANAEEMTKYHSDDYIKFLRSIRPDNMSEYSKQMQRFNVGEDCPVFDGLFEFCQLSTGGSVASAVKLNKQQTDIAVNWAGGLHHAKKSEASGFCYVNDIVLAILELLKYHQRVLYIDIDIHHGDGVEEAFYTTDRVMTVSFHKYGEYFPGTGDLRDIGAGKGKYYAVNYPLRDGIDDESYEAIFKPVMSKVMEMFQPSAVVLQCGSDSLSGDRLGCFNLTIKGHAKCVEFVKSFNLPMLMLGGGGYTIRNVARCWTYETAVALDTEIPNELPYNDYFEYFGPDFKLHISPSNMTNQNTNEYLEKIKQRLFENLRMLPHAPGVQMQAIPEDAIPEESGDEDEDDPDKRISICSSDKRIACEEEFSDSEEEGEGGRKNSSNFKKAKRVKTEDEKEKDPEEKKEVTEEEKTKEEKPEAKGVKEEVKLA

HCT116 and A549 cells = assay: Acetylation of non-histone proteins by Western blotting; type: cell-based
HDAC10 = HDAC10 (Homo sapiens (Human), UniProt Q969S8); assay: HDAC10 in vitro inhibition, dose response; type: biochemical; details: Table 1; read-out: Inhibitory Potency (IC50) HDAC 10
Chain of HDAC10 (Q969S8 whole entry): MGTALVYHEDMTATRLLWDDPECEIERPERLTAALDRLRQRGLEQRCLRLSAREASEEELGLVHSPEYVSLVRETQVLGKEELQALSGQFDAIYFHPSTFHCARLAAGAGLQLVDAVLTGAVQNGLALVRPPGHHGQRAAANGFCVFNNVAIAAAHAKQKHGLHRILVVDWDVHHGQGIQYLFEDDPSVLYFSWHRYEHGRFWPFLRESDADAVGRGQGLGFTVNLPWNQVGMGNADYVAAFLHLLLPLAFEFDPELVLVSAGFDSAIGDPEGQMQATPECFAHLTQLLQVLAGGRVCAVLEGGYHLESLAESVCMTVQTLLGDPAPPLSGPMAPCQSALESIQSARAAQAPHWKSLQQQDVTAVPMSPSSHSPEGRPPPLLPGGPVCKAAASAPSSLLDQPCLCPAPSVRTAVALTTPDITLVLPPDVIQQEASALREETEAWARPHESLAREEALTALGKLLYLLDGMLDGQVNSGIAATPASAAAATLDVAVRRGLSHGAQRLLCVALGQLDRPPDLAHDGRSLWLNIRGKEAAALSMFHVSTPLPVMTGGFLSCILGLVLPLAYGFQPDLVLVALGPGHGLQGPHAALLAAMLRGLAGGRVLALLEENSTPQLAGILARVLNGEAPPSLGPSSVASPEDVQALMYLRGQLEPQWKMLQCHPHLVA

HDAC2 [2] = target: T2, HDAC2 (Homo sapiens (Human), UniProt Q92769); assay: HDAC2 in vitro inhibition, dose response; type: biochemical
T2 sequence (Q92769 whole entry): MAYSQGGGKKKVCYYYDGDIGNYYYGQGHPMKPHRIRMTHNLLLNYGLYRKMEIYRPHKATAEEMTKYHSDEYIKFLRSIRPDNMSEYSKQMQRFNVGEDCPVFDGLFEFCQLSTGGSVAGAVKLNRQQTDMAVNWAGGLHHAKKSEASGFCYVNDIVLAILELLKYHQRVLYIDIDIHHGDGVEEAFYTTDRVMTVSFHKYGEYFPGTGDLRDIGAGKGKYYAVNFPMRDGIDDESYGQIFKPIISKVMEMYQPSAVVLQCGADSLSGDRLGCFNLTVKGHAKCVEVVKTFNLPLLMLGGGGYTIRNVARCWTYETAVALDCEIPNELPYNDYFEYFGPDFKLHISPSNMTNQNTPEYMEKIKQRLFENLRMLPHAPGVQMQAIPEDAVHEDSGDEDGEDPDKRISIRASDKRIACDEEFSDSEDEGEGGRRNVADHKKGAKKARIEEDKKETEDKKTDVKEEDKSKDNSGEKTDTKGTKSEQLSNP

HCT116 cells [3] = assay: H3K18ac after 6 h pulse treatment and drug washout; type: cell-based
CDKN1A = assay: qPCR of CDKN1A encoding p21; type: cell-based; details: MDA-MB-231
HDAC2 [4] = target: T2, HDAC2; assay: HDAC-2 inhibition potency, luminescence readout; type: biochemical; details: Table 6, luminescence readout
Text: (§1) Compounds were examined for their HDAC inhibitory activity and their effect on cancer cell viability (MDA-MB-231 cells).

HDAC9 = HDAC9 (Homo sapiens (Human), UniProt Q9UKV0); assay: HDAC9 in vitro inhibition, dose response; type: biochemical; details: Table 1; read-out: Inhibitory Potency (IC50) HDAC 9
HDAC1 [5] = target: T1, HDAC1; assay: HDAC-1 inhibition potency, luminescence readout; type: biochemical; details: Table 6, luminescence readout
Text: as §1

HDAC8 = HDAC8 (Homo sapiens (Human), UniProt Q9BY41); assay: HDAC8 in vitro inhibition, dose response; type: biochemical
Chain of HDAC8 (Q9BY41 whole entry): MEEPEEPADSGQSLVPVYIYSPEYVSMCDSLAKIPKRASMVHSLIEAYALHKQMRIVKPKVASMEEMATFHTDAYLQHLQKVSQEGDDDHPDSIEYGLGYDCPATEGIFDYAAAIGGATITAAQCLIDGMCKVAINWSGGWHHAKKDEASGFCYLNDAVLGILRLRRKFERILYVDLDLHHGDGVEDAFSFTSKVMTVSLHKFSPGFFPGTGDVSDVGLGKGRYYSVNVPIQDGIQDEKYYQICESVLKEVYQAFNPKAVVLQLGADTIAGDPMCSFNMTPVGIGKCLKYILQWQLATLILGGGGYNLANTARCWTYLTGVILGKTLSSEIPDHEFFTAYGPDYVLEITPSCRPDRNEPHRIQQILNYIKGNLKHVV

HDAC11 = HDAC11 (Homo sapiens (Human), UniProt Q96DB2); assay: HDAC11 in vitro inhibition, dose response; type: biochemical; details: Table 1; read-out: Inhibitory Potency (IC50) HDAC 11
MDA-MB-231 cells [6] = details: MDA-MB-231 monolayer scratch; UF010 at 1 μM
HCT116 cells [7] = assay: Histone acetylation by Western blotting; type: cell-based
HDAC5 = HDAC5 (Homo sapiens (Human), UniProt Q9UQL6); assay: HDAC5 in vitro inhibition, dose response; type: biochemical; details: Table 1; read-out: Inhibitory Potency (IC50) HDAC 5
Chain of HDAC5 (Q9UQL6 whole entry): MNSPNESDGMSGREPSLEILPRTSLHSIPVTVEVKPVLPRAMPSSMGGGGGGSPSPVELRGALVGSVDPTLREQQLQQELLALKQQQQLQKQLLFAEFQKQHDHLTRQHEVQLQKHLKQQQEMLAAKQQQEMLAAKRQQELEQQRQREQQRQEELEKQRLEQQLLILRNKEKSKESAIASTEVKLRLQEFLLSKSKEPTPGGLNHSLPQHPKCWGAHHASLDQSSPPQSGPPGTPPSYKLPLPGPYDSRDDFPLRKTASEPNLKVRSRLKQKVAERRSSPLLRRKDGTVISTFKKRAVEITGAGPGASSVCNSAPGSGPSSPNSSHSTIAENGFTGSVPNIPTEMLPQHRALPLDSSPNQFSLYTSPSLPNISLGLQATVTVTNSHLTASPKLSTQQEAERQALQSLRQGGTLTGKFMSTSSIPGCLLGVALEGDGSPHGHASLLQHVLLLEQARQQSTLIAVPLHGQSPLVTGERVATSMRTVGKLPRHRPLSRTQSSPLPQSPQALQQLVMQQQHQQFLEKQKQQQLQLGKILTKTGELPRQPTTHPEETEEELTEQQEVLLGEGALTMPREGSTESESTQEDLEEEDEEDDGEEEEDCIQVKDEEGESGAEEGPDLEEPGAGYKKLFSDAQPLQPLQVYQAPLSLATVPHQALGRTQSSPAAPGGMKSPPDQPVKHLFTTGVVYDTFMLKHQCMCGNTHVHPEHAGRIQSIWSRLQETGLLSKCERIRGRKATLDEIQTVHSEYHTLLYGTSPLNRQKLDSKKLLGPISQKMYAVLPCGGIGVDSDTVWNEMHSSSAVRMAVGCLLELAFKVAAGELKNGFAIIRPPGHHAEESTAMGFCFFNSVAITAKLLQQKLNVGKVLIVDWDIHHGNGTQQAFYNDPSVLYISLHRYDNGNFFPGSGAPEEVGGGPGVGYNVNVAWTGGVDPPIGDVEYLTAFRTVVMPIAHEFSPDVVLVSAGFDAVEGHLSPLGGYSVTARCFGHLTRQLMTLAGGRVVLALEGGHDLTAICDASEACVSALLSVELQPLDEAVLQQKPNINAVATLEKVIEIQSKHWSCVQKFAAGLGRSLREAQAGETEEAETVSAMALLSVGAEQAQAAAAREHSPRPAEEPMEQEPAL

MDA-MB-231 cells [8] = assay: Cancer cell viability (CellTiter-Glo); type: cell-based; details: Homo sapiens, MDA-MB-231, read-out: Cancer cell (MDA-MB-231) killing IC50
MDA-MB-231 cells [9] = assay: Cell cycle analysis by FACS; type: cell-based; details: MDA-MB-231, 24 h, dose-dependent
HDAC7 = HDAC7 (Homo sapiens (Human), UniProt Q8WUI4); assay: HDAC7 in vitro inhibition, dose response; type: biochemical; details: Table 1; read-out: Inhibitory Potency (IC50) HDAC 7
HDAC3 [10] = target: T3, HDAC3 (Homo sapiens (Human), UniProt O15379); assay: HDAC3 in vitro inhibition, dose response; type: biochemical
T3 sequence (O15379 whole entry): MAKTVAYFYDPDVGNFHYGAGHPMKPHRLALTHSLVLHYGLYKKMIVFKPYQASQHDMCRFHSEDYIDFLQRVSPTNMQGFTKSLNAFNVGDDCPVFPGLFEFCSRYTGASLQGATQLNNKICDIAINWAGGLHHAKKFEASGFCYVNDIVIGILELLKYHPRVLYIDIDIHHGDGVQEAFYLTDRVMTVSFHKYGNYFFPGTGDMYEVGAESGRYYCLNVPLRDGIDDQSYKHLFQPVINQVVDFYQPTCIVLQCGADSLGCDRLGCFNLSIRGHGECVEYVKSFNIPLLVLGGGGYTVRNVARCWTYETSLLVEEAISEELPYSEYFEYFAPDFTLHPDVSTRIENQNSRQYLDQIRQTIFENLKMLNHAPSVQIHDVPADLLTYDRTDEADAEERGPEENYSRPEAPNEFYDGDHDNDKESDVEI
T3 sequence (Q9Y618 395-489 partner): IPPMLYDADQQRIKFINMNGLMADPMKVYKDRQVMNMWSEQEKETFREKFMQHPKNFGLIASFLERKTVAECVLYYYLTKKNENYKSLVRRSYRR

HDAC6 = HDAC6 (Homo sapiens (Human), UniProt Q9UBN7); assay: HDAC6 in vitro inhibition, dose response; type: biochemical
Chain of HDAC6 (Q9UBN7 whole entry): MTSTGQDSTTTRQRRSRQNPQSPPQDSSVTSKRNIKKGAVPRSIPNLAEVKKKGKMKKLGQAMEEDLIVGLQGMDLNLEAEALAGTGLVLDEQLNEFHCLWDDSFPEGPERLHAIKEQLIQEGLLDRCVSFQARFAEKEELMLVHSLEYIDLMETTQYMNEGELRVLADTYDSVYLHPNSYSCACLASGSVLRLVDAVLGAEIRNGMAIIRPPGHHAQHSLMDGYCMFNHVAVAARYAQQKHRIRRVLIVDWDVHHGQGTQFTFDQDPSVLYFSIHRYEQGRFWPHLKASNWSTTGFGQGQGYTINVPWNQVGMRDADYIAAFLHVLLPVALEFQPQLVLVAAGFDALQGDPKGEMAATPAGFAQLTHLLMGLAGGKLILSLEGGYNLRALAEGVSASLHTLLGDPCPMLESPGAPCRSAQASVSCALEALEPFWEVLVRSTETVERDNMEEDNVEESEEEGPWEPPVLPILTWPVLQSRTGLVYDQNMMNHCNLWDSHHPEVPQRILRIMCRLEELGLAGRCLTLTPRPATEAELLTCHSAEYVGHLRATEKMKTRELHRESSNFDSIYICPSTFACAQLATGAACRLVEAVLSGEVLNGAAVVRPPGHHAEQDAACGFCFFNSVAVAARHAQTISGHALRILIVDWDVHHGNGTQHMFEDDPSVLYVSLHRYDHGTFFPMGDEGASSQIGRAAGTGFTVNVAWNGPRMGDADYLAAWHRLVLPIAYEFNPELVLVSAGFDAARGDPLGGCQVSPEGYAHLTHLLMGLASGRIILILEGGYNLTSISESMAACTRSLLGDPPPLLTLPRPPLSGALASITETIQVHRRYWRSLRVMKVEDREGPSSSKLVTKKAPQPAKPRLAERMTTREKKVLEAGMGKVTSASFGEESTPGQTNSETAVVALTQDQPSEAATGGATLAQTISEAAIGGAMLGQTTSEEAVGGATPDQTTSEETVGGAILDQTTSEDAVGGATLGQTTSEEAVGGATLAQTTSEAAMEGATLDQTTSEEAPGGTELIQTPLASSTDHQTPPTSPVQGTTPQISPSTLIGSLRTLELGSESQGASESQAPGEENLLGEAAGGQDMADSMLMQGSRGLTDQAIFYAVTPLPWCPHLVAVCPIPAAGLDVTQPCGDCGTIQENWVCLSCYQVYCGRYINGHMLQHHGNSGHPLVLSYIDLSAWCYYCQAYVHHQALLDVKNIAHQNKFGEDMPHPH

[11] = Oral tolerability / maximal tolerated dose in mice; details: mouse
HepG2 cells [12] = system: HepG2 cells
HDAC3 [13] = target: T3, HDAC3; assay: HDAC-3 inhibition potency, luminescence readout; type: biochemical; details: Table 6, luminescence readout
HepG2 cells [14] = assay: cells; details: Homo sapiens
[15] = mouse, in vivo, po
MDA-MB-468 cells = assay: Viability of MDA-MB-468 cells, with or without HDAC shRNA; details: for IC50: Homo sapiens
MDA-MB-231 cells [16] = assay: Global gene expression (Affymetrix Human Transcriptome Array 2.0) with Ingenuity Pathway Analysis; type: cell-based; details: 24 h; for Predicated activation state, Biological Functions / Predicated activation state, Upstream Regulators: 1 μM
[17] = system: NCI-60 panel of cancer cell lines; assay: NCI-60 panel of cancer cell lines, cell growth; type: cell-based; details: all tested cell lines

## CCCCNNC(=O)c1ccc(Br)cc1 [UF010, 4-bromo-N′-butylbenzohydrazide]
HDAC4
  IC50: > 100 µM
HDAC1 [1]; Table 1, read-out: Inhibitory Potency (IC50) HDAC 1
  IC50: 0.5 µM
HDAC1 [1]; Table 2, read-out: HDAC 1 IC50
  IC50: 0.5 µM
HCT116 and A549 cells; HCT116 and A549, 1 h, TSA 0.2 μM, UF010 2 μM
  α-tubulin acetylation: little to no effect
HCT116 and A549 cells; HCT116 and A549, after exposure to etoposide
  accumulation of acetylated p53: induced accumulation of acetylated p53
HCT116 and A549 cells; with or without etoposide treatment
  p53 stabilization: notably stabilized p53
HDAC10
  IC50: 15.3 µM
HDAC2 [2]; Table 1, read-out: Inhibitory Potency (IC50) HDAC 2
  IC50: 0.1 µM
HDAC2 [2]; Table 2, read-out: HDAC 2 IC50
  IC50: 0.1 µM
HCT116 cells [3]; HCT116, 6 h pulse exposure
  time at which histone acetylation (H3K18ac) was induced: ≤ 6 h
HCT116 cells [3]; HCT116, 6 h pulse then drug washout, time after drug addition
  time up to which induced acetylation was maintained: up to 96 h
HCT116 cells [3]; HCT116, washout experiment
  mode of HDAC inhibition (on/off): fast-on but slow-off
CDKN1A
  CDKN1A (p21) expression by quantitative real-time PCR: activation of CDKN1A
HDAC2 [4]
  IC50: 1.33 µM
HDAC9
  IC50: > 100 µM
HDAC1 [5]
  IC50: 0.46 µM
HDAC8; Table 1, read-out: Inhibitory Potency (IC50) HDAC 8
  IC50: 1.5 µM
HDAC8; Table 2, read-out: HDAC 8 IC50
  IC50: 1.5 µM
HDAC11
  IC50: 44.5 µM
MDA-MB-231 cells [6]
  cell migration to the denuded areas: markedly slowed migration
HCT116 cells [7]; HCT116, 0.5 μM, 24 h (FIG. 1B)
  inhibition of cellular HDACs (H4K5ac, H3K18ac): potent inhibition of cellular HDACs
HCT116 cells [7]; HCT116, 1 h exposure, TSA 0.2 μM, others 2 μM (FIG. 1A)
  accumulation of acetylated histones: consistently induced the accumulation of acetylated histones at all sites examined
HDAC5
  IC50: > 100 µM
MDA-MB-231 cells [8]
  IC50: 31 µM
MDA-MB-231 cells [9]
  cell cycle effect: mainly blocked G1/S transition
HDAC7
  IC50: > 100 µM
HDAC3 [10]; Table 1, read-out: Inhibitory Potency (IC50) HDAC 3
  IC50: 0.06 µM
HDAC3 [10]; Table 2, read-out: HDAC 3 IC50
  IC50: 0.06 µM
HDAC6; Table 1, read-out: Inhibitory Potency (IC50) HDAC 6
  IC50: 9.1 µM
HDAC6; Table 2, read-out: HDAC 6 IC50
  IC50: 9.1 µM
[11]; in vivo, po, 80 mg/kg
  MTD: > 80 mg/kg
[11]; oral once daily
  MTD: >80 mg/kg
HepG2 cells [12]
  reduction of cytotoxic potency by HDAC2 shRNA expression: about 2 fold
HDAC3 [13]
  IC50: 0.19 µM
HepG2 cells [14]; HepG2, read-out: IC50 Control
  IC50: 4.6 µM
HepG2 cells [14]; HepG2, read-out: IC50 HDAC1 shRNA
  IC50: 5.9 µM
HepG2 cells [14]; HepG2, read-out: IC50 HDAC2 shRNA
  IC50: 10.9 µM
HepG2 cells [14]; HepG2, read-out: IC50 HDAC3 shRNA
  IC50: 1.3 µM
[15]
  abnormal physical or mental behaviors: No signs
MDA-MB-468 cells; MDA-MB-468, read-out: IC50 Control
  IC50: 16.1 µM
MDA-MB-468 cells; MDA-MB-468, read-out: IC50 HDAC2 shRNA
  IC50: 32.8 µM
MDA-MB-468 cells; MDA-MB-468
  reduction of cytotoxic potency by HDAC2 shRNA expression: about 2 fold
MDA-MB-231 cells [16]; Apoptosis
  Predicated activation state, Biological Functions: Activated
MDA-MB-231 cells [16]; Butyric acid
  Predicated activation state, Upstream Regulators: Activated
MDA-MB-231 cells [16]; Cell cycle progression
  Predicated activation state, Biological Functions: Suppressed
MDA-MB-231 cells [16]; Cell survival
  Predicated activation state, Biological Functions: Suppressed
MDA-MB-231 cells [16]; Cisplatin
  Predicated activation state, Upstream Regulators: Activated
MDA-MB-231 cells [16]; ERK1/2
  Predicated activation state, Upstream Regulators: Activated
MDA-MB-231 cells [16]; HDAC1
  Predicated activation state, Upstream Regulators: Suppressed
MDA-MB-231 cells [16]; HDAC2
  Predicated activation state, Upstream Regulators: Suppressed
MDA-MB-231 cells [16]; KRAS
  Predicated activation state, Upstream Regulators: Suppressed
MDA-MB-231 cells [16]; MDA-MB-231, 1 μM
  number of genes downregulated by […]: 68
  number of genes upregulated by […]: 115
MDA-MB-231 cells [16]; MYCN
  Predicated activation state, Upstream Regulators: Suppressed
MDA-MB-231 cells [16]; Myc
  Predicated activation state, Upstream Regulators: Suppressed
MDA-MB-231 cells [16]; Necrosis
  Predicated activation state, Biological Functions: Activated
MDA-MB-231 cells [16]; Proliferation of cells
  Predicated activation state, Biological Functions: Suppressed
MDA-MB-231 cells [16]; Rb1
  Predicated activation state, Upstream Regulators: Activated
MDA-MB-231 cells [16]; Repair of DNA
  Predicated activation state, Biological Functions: Suppressed
MDA-MB-231 cells [16]; Romidepsin
  Predicated activation state, Upstream Regulators: Activated
MDA-MB-231 cells [16]; TP53
  Predicated activation state, Upstream Regulators: Activated
MDA-MB-231 cells [16]; Transcription of RNA
  Predicated activation state, Biological Functions: Suppressed
MDA-MB-231 cells [16]; Tributyrin (butyrate)
  Predicated activation state, Upstream Regulators: Activated
MDA-MB-231 cells [16]; Trichostatin A
  Predicated activation state, Upstream Regulators: Activated
MDA-MB-231 cells [16]; fulvestrant
  Predicated activation state, Upstream Regulators: Activated
[17]
  inhibition of proliferation, NCI-60 panel: inhibited proliferation of all tested cell lines
